Key:
C1R:A2 cells = assay: In vitro induction of peptide-reactive CTL from PBMC, 51Cr release on peptide-pulsed C1R:A2; assay type: cell-based, human
HLA-A2+ PBMC = assay: Proliferation assay (3H-thymidine incorporation, stimulation index); assay type: cell-based, human; conditions: Donor 20; peptide 50 μg/ml, 5 days
Description: Fresh PBMC from healthy volunteers isolated by Ficoll-Hypaque™ were distributed into 96-well round-bottomed plates (Falcon, Becton-Dickinson) at 2×10^5/well in RPMI-FCS. Peptides were added at 50 μg/ml. The studies were performed at least twice using PBMC from the same donor, in quadruplicate. After 5 days, for the last 16 h in culture, wells were pulsed with 1 μCi of [^3H]-thymidine (^3H-Tdr) and counted. Proliferation was determined as ^3H-Tdr incorporation and c.p.m. determined in the samples of PBMC cultured with peptides and were divided by c.p.m. determined same cultures in the absence of peptides, to determine the stimulation index (S.I.).
HER-2 peptides (Table 6) were tested for their ability to stimulate HLA-A2^+ PBMC to proliferate in vitro. PBMC from healthy donors were incubated with HER-2 peptides from the groups:41-56, 392-410 and 968-984 for 5 days. With few exceptions, significant cell proliferation was not observed in all 4 PBMC samples from individual donors of different HLA-types including HLA-A2. […] The exception to these observations was Donor 20.S.I. for D95 was 6.4, for D121 was 4.3, but for the nonamer D119 was only 1.1. Similarly, the S.I. for the longer peptide D96 (41-54) was 2.8 but for the shorter peptide D97 was only 1.5. These differences were statistically significant.

HLA-A2 of T2 cells = target: T1, HLA-A2 of T2 cells (Homo sapiens, UniProt P04439, D140Y/D185E/D98H/E176V/E277Q/G131W/G231S/I119V/I121R/I166T/I218V/L300P/L318F/N151K/N90K/P208A/P217A/Q86G/Q94H/R138H/R169H/T345S); assay: Reactivity of MA2.1 mAb with T2 cells after culture with peptide (immunofluorescence, FL1); assay type: cell-based; conditions: peptide 50 μg/ml, overnight culture in IMDM-FCS
T1 construct: cell surface expression of HLA-A2 is lower (30-40%) than in normal LBL lines transfected with HLA-A2; endogenous in cells; host or cells: T2 (transport deletion mutant) human lymphoblastoid cells, obtained from Dr. Peter Creswell
Description: FIG. 5A. Effects of HER-2 peptides on reactivity of MA2.1 mAb with T2 cells. Fluorescence analysis and determination of FL1 were performed as described (Stauss et al., 1992). Peptides were added to T2 cells at 50 μg/ml (final concentration). After overnight culture, in IMDM-FCS, cells were washed and the levels of HLA-A2 expression were determined using HLA-A2 specific mAb.
(§1) mAbs to CD3 (OKT3-FITC), CD4 (OKT4-FITC) and CD8 (OKT8-FITC) were obtained from Ortho Diagnostic (Ortho, Raritan, N.J.), mAb W6/32 (anti-HLA, -A, -B, -C) from Dako (Dako-Dakopatts, Denmark); HLA-A2 reacting mAb BB7.2 and MA2.1 from ATCC. Immunofluorescence studies were performed as described in Example 1.
To determine whether these peptides and longer analogs affect HLA-A2 conformation as an indication of HLA-A2 binding, the effects of HER-2 peptides on the reactivity of conformationally dependent mAb MA2.1 and BB.7.2 were examined with HLA-A2 of T2 cells. The human cell line T2 has a defect affecting endogenous peptide loading of MHC class I molecules. As a consequence, cell surface expression of HLA-A2 is lower (30-40%) than in normal LBL lines transfected with HLA-A2 (e.g., C1R) but the reactivity of MA2.1 and BB.7.2 mAb is increased when certain HLA-A2 binding peptides are added to the culture medium (Anderson et al., 1993). Although most human MHC class I molecules cannot be induced at the low temperatures used for their murine counterparts because of fundamental structural differences between human and mouse class I (Anderson et al., 1993), the fact that they express few endogenous (mainly signal) peptides (Zweerink et al., 1993) increases the sensitivity of detection of peptide-HLA-A2 interaction.

PBMC = assay: Surface phenotype of T-cells from PBMC cultures stimulated with HER-2 peptide; assay type: cell-based, human; conditions: nine days after first stimulation, expansion in IL-2
Description: FIG. 7A. Surface phenotype of T-cells from PBMC cultures stimulated with HER-2 peptide D97. Fresh isolated PBMC from healthy volunteers were induced in vitro with HER-2 peptides. T-cell surface phenotypes were determined after one (1) and two (2) stimulations with the same peptide. Immunofluorescence analysis was performed as described in the Materials and methods. Symbols indicate (o—o) CD3^+ cells, (▪—▪) CD8^+ cells, and (□—□) CD4^+ cells.
as §1
To address the question of whether in vitro stimulation of PBMC with HER-2 peptides followed by culture in the presence of IL-2 leads to T-cell phenotype change, the % CD3, CD4, and CD8 expression on the surface of HER-2 peptide-stimulated PBMC were determined. The results of a typical study are shown in FIG. 7A, FIG. 7B and FIG. 7C. […] This trend continued in all cultures and 10-15 days after a third stimulation, with the same peptide in all cultures, CD4^+ cells constituted the dominant (>80%) cell population.

C84 reactive CTL = assay: Recognition by C84 reactive CTL; assay type: cell-based, human
Description: The analogs with sequences C91=[…], (SEQ ID NO:4) and C92=[…] (SEQ ID NO:3) are also compositions of the present invention. In addition, substitutions at P4 (S→K) and P6 (F→V) affect residues that are expected to interact with TCR. […] Both C81 and C82 can form the core for antagonists of HER-2 reactive CTLs (to control and stop CTL reactions), and as such represent the first “universal” antagonists reported for stimulating CTLs.

[1] = target: T2, HLA-A2 on indicator T2 cells (Homo sapiens, UniProt P04439, D140Y/D185E/D98H/E176V/E277Q/G131W/G231S/I119V/I121R/I166T/I218V/L300P/L318F/N151K/N90K/P208A/P217A/Q86G/Q94H/R138H/R169H/T345S); assay: Stabilization of HLA-A2 expression on indicator line T2; assay type: cell-based
T2 construct: cell surface expression of HLA-A2 is lower (30-40%) than in normal LBL lines transfected with HLA-A2; endogenous in cells; host or cells: T2 (transport deletion mutant) human lymphoblastoid cells, obtained from Dr. Peter Creswell
Description: Since HER-2 is a self-antigen, during thymic selection, a number of T-cells carrying receptors with high affinity for the HLA-peptide complex are silenced either by elimination ro tolerization. A pre-condition for induction of a high affinity TCR-(MHC+peptide) interactions, is a stable (MHC+peptide) complex. […] However, stabilization of HLA-Class I binding by exogenously added peptide is dependent on introduction of dominant anchors in positions P2 and P9 which are not recognized by TCR.
Peptide D113, […] (SEQ ID NO:17), is the natural nonapeptide […].

| Sequence | Ag specificity of CTL response induced by the peptide (C1R:A2 cells; PBMC stimulated with the peptide) | lysis of peptide-pulsed targets by PBMC stimulated with the peptide (C1R:A2 cells; donor 20) | stimulation index (S.I.) (HLA-A2+ PBMC) | FL1 of T2 cells stained with MA2.1 mAb (HLA-A2 of T2 cells) | change in CD8+ cells (PBMC) | recognition by C84 reactive CTL (C84 reactive CTL) | HLA-A2 binding [1] |
| --- | --- | --- | --- | --- | --- | --- | --- |
| LQPEQLQVFETLEEITGYLY [Peptide D121, HER-2:392-411, 20-mer] | lacked Ag specificity | somewhat higher lysis of targets pulsed with the nonapeptide D119 than D121 | 4.3 | failed to significantly affect the FL1 | significant increase in CD8^+ cells |  |  |
| ELVKEVSKV [Peptide C82, C85 analog with P4 (S→K) and P6 (F→V) substitutions] |  |  |  |  |  | no longer recognized by C84 reactive CTL | binds HLA-A2 |
